According to paper PMC4297936 (Redox Biology, 2014):

Columns and labels:
[1] = target: T1, mitochondrial complex I (NADH: ubiquinone oxidoreductase) (Mus musculus, UniProt P03888+Q91WD5+Q9DC70); experiment: NADH: ubiquinone oxidoreductase activity; type: biochemical
[2] = target: mitochondrial complex II (succinate: ubiquinone oxidoreductase) (Mus musculus, UniProt Q8K2B3+Q9CQA3+Q9CXV1+Q9CZB0); experiment: succinate: ubiquinone oxidoreductase activity, DCPIP reduction; type: biochemical
[3] = target: T1, mitochondrial complex I (NADH: ubiquinone oxidoreductase); experiment: NADH: ubiquinone oxidoreductase activity; type: cell-based; conditions: read-out: % inhibition at 20 μM

mitochondrial complex II (succinate: ubiquinone oxidoreductase), sequence (Q8K2B3 43-664): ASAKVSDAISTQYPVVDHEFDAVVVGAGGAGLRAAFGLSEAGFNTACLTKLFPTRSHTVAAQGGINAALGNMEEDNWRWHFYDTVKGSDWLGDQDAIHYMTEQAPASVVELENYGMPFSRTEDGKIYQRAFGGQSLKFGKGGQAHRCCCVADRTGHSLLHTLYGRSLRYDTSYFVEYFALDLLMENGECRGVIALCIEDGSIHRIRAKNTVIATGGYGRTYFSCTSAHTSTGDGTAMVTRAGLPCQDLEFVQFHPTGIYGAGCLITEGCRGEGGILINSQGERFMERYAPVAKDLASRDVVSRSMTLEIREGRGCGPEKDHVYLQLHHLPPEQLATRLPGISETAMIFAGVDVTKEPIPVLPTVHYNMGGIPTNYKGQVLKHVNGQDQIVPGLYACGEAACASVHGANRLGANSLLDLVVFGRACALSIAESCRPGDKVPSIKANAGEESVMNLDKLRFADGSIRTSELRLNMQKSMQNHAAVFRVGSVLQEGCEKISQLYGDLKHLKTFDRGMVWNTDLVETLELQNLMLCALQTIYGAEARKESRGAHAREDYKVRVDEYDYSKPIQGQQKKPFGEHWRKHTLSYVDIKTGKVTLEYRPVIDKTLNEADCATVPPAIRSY
mitochondrial complex II (succinate: ubiquinone oxidoreductase), sequence (Q9CQA3 31-282): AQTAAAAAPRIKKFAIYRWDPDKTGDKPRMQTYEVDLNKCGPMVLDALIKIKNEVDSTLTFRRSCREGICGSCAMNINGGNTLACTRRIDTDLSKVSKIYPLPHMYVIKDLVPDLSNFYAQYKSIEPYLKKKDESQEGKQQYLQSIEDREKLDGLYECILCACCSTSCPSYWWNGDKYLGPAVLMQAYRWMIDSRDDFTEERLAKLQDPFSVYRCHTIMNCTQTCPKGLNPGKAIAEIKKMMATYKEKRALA
mitochondrial complex II (succinate: ubiquinone oxidoreductase), sequence (Q9CZB0 30-169): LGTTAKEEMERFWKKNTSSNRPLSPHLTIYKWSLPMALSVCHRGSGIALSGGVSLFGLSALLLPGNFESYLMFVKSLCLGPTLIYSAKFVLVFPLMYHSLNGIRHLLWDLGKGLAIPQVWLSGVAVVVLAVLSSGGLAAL
mitochondrial complex II (succinate: ubiquinone oxidoreductase), sequence (Q9CXV1 57-159): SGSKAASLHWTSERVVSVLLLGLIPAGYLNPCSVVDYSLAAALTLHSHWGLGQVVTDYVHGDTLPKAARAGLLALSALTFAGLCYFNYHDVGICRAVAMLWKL

SMILES: O=C1Nc2ccc(Cl)cc2[C@@](C#CC2CC2)(C(F)(F)F)O1 [EFV, efavirenz]
- IC50 [1]: ~30 µM

SMILES: NN [HzN, hydrazine]
- IC50 [2]: ~30 µM

SMILES: C=C(C)[C@H]1Cc2c(ccc3c2O[C@@H]2COc4cc(OC)c(OC)cc4[C@@H]2C3=O)O1 [ROT, rotenone]
- inhibition at 20 µM [3]: ~50%
